Data taken from patent US20260262643A1, “HERBICIDAL BENZOXAZINES” (FMC CORPORATION, priority 2022, published 2026).

What was measured:
foxtail, giant [1] = assay: Test A preemergence; format: in vivo, Setaria faberi; conditions: 1000 g ai/ha, 0 to 100 scale (0 no effect, 100 complete control), 10 days
From the text: (§1) Seeds of plant species selected from barnyardgrass (Echinochloa crusgalli), blackgrass (Alopecurus myosuroides), corn (Zea mays), foxtail, giant (giant foxtail, Setaria faberi), goosegrass (Eleusine indica), kochia (Bassia scoparia), oat, wild (wild oat, Avena fatua), pigweed, palmer (palmer amaranth, palmer pigweed, Amaranthus palmeri), Pigweed, Redroot (redroot pigweed, Amaranthus retroflexus), ragweed (common ragweed, Ambrosia artemisiifolia), ryegrass, Italian (italian ryegrass, Lolium multiflorum), soybean (Glycine max), and wheat (Triticum aestivum) were planted into a blend of loam soil and sand and treated preemergence with a directed soil spray using test chemicals formulated in a non-phytotoxic solvent mixture which included a surfactant. At the same time, plants selected from these crops and weed species and also galium (catchweed bedstraw, Galium aparine) and horseweed (Erigeron canadensis) were planted in pots containing the same blend of loam soil and sand and treated with postemergence applications of test chemicals formulated in the same manner. Plants ranged in height from 2 to 10 cm and were in the one- to two-leaf stage for the postemergence treatment. Treated plants and untreated controls were maintained in a greenhouse for 10 days, after which time all treated plants were compared to untreated controls and visually evaluated for injury. Plant response ratings, summarized in Table A, are based on a 0 to 100 scale where 0 is no effect and 100 is complete control. A dash (-) response means no test result.

blackgrass [2] = assay: Test A preemergence; format: in vivo, Alopecurus myosuroides; conditions: 1000 g ai/ha, 0 to 100 scale (0 no effect, 100 complete control), 10 days
From the text: as §1

kochia [3] = assay: Test A postemergence; format: in vivo, Bassia scoparia; conditions: 1000 g ai/ha, Postemergence; 0 to 100 scale
From the text: as §1

ragweed [4] = assay: Test A postemergence; format: in vivo, Ambrosia artemisiifolia; conditions: 1000 g ai/ha, Postemergence; 0 to 100 scale
From the text: as §1

goosegrass [5] = assay: Test A preemergence; format: in vivo, Eleusine indica; conditions: 1000 g ai/ha, 0 to 100 scale (0 no effect, 100 complete control), 10 days
From the text: as §1

kochia [6] = assay: Test A preemergence; format: in vivo, Bassia scoparia; conditions: 1000 g ai/ha, 0 to 100 scale (0 no effect, 100 complete control), 10 days
From the text: as §1

ragweed [7] = assay: Test A preemergence; format: in vivo, Ambrosia artemisiifolia; conditions: 1000 g ai/ha, 0 to 100 scale (0 no effect, 100 complete control), 10 days
From the text: as §1

horseweed [8] = assay: Test A postemergence; format: in vivo, Erigeron canadensis; conditions: 1000 g ai/ha, Postemergence; 0 to 100 scale
From the text: as §1

goosegrass [9] = assay: Test A postemergence; format: in vivo, Eleusine indica; conditions: 1000 g ai/ha, Postemergence; 0 to 100 scale
From the text: as §1

foxtail, giant [10] = assay: Test A postemergence; format: in vivo, Setaria faberi; conditions: 1000 g ai/ha, Postemergence; 0 to 100 scale
From the text: as §1

ryegrass, Italian [11] = assay: Test A preemergence; format: in vivo, Lolium multiflorum; conditions: 1000 g ai/ha, 0 to 100 scale (0 no effect, 100 complete control), 10 days
From the text: as §1

blackgrass [12] = assay: Test A postemergence; format: in vivo, Alopecurus myosuroides; conditions: 1000 g ai/ha, Postemergence; 0 to 100 scale
From the text: as §1

pigweed, palmer [13] = assay: Test A postemergence; format: in vivo, Amaranthus palmeri; conditions: 1000 g ai/ha, Postemergence; 0 to 100 scale
From the text: as §1

galium [14] = assay: Test A postemergence; format: in vivo, Galium aparine; conditions: 1000 g ai/ha, Postemergence; 0 to 100 scale
From the text: as §1

pigweed, palmer [15] = assay: Test A preemergence; format: in vivo, Amaranthus palmeri; conditions: 1000 g ai/ha, 0 to 100 scale (0 no effect, 100 complete control), 10 days
From the text: as §1

ryegrass, Italian [16] = assay: Test A postemergence; format: in vivo, Lolium multiflorum; conditions: 1000 g ai/ha, Postemergence; 0 to 100 scale
From the text: as §1

wheat [17] = assay: Test C preemergence; format: in vivo, Triticum aestivum; conditions: 0 to 100 scale (0 no effect, 100 complete control)
Outline: (§2)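 Greenhouse herbicide screen, 10-day duration. Test chemicals in solvent/surfactant blend were sprayed onto soil at sowing (pre) or onto 2–10 cm seedlings at one to two leaves (post); injury scored visually against controls, 0 no effect to 100 complete control.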

ryegrass, Italian [18] = assay: Test C postemergence; format: in vivo, Lolium multiflorum; conditions: 10 days
Outline: as §2

wheat [19] = assay: Test C postemergence; format: in vivo, Triticum aestivum; conditions: 10 days
Outline: as §2

rice = assay: Test D flooded paddy test; format: in vivo, Oryza sativa; conditions: 250 g ai/ha, applied to paddy water, visual rating after 13 to 14 days, scale 0 to 100 (0 no effect, 100 complete control)
Outline: (§3)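 Visual ratings from 0, meaning no effect, to 100, meaning complete control, were assigned against untreated controls 13 to 14 days after compounds were added to the floodwater of pots kept 3 cm deep, with plants at the 2-leaf stage.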

ragweed [20] = assay: Test C preemergence; format: in vivo, Ambrosia artemisiifolia; conditions: 0 to 100 scale (0 no effect, 100 complete control)
Outline: as §2

ducksalad = assay: Test D flooded paddy test; format: in vivo, Heteranthera limosa; conditions: 250 g ai/ha, applied to paddy water, visual rating after 13 to 14 days, scale 0 to 100 (0 no effect, 100 complete control)
Outline: as §3

blackgrass [21] = assay: Test C postemergence; format: in vivo, Alopecurus myosuroides; conditions: 10 days
Outline: as §2

ryegrass, Italian [22] = assay: Test C preemergence; format: in vivo, Lolium multiflorum; conditions: 0 to 100 scale (0 no effect, 100 complete control)
Outline: as §2

sedge, umbrella = assay: Test D flooded paddy test; format: in vivo, Cyperus difformis; conditions: 250 g ai/ha, applied to paddy water, visual rating after 13 to 14 days, scale 0 to 100 (0 no effect, 100 complete control)
Outline: as §3

barnyardgrass [23] = assay: Test C preemergence; format: in vivo, Echinochloa crusgalli; conditions: 0 to 100 scale (0 no effect, 100 complete control)
Outline: as §2

pigweed, palmer [24] = assay: Test C postemergence; format: in vivo, Amaranthus palmeri; conditions: 10 days
Outline: as §2

barnyardgrass [25] = assay: Test C postemergence; format: in vivo, Echinochloa crusgalli; conditions: 10 days
Outline: as §2

soybean [26] = assay: Test C preemergence; format: in vivo, Glycine max; conditions: 0 to 100 scale (0 no effect, 100 complete control)
Outline: as §2

barnyardgrass [27] = assay: Test D flooded paddy test; format: in vivo, Echinochloa crus-galli; conditions: 250 g ai/ha, applied to paddy water, visual rating after 13 to 14 days, scale 0 to 100 (0 no effect, 100 complete control)
Outline: as §3

blackgrass [28] = assay: Test C preemergence; format: in vivo, Alopecurus myosuroides; conditions: 0 to 100 scale (0 no effect, 100 complete control)
Outline: as §2

soybean [29] = assay: Test C postemergence; format: in vivo, Glycine max; conditions: 10 days
Outline: as §2

corn [30] = assay: Test C preemergence; format: in vivo, Zea mays; conditions: 0 to 100 scale (0 no effect, 100 complete control)
Outline: as §2

kochia [31] = assay: Test C postemergence; format: in vivo, Bassia scoparia; conditions: 10 days
Outline: as §2

horseweed [32] = assay: Test C postemergence; format: in vivo, Erigeron canadensis; conditions: Postemergence, 500 g ai/ha, 10 days, visual 0 to 100 scale (0 no effect, 100 complete control)
Outline: as §2

green foxtail [33] = assay: Test C preemergence; format: in vivo, Setaria viridis; conditions: 0 to 100 scale (0 no effect, 100 complete control)
Outline: as §2

ragweed [34] = assay: Test C postemergence; format: in vivo, Ambrosia artemisiifolia; conditions: 10 days
Outline: as §2

galium [35] = assay: Test C postemergence; format: in vivo, Galium aparine; conditions: 10 days
Outline: as §2

kochia [36] = assay: Test C preemergence; format: in vivo, Bassia scoparia; conditions: 0 to 100 scale (0 no effect, 100 complete control)
Outline: as §2

oat, wild [37] = assay: Test C preemergence; format: in vivo, Avena fatua; conditions: 0 to 100 scale (0 no effect, 100 complete control)
Outline: as §2

oat, wild [38] = assay: Test C postemergence; format: in vivo, Avena fatua; conditions: 10 days
Outline: as §2

pigweed, palmer [39] = assay: Test C preemergence; format: in vivo, Amaranthus palmeri; conditions: 0 to 100 scale (0 no effect, 100 complete control)
Outline: as §2

green foxtail [40] = assay: Test C postemergence; format: in vivo, Setaria viridis; conditions: 10 days
Outline: as §2

corn [41] = assay: Test C postemergence; format: in vivo, Zea mays; conditions: 10 days
Outline: as §2

[42] = Preemergence, 500 g ai/ha, visual rating after 10 days
[43] = Test C, preemergence, 125 g ai/ha
[44] = 125 g ai/ha, postemergence, 0 to 100 scale, 0 no effect, 100 complete control
[45] = Postemergence, 500 g ai/ha, visual 0 to 100 scale (0 no effect, 100 complete control)

## Cc1noc(-c2cccc(C(=O)N3C[C@H](C)Oc4c(Cl)cccc43)c2)n1 [Compound 121]
foxtail, giant [1]
  Plant response rating, Foxtail, Giant: 60
Blackgrass [2]
  Plant response rating, Blackgrass: 0
Kochia [3]
  Plant response rating, Kochia: 70
Ragweed [4]
  Plant response rating, Ragweed: 0
Goosegrass [5]
  Plant response rating, Goosegrass: 0
Kochia [6]
  Plant response rating, Kochia: 0
Ragweed [7]
  Plant response rating, Ragweed: 0
Horseweed [8]
  Plant response rating, Horseweed: 0
Goosegrass [9]
  Plant response rating, Goosegrass: 0
foxtail, giant [10]
  Plant response rating, Foxtail, Giant: 20
ryegrass, Italian [11]
  Plant response rating, Ryegrass, Italian: 0
Blackgrass [12]
  Plant response rating, Blackgrass: 0
pigweed, palmer [13]
  Plant response rating, Pigweed, Palmer: 50
Galium [14]
  Plant response rating, Galium: 80
pigweed, palmer [15]
  Plant response rating, Pigweed, Palmer: 60
ryegrass, Italian [16]
  Plant response rating, Ryegrass, Italian: 0

## Cc1ccc(-n2cnc(C3CCC3)n2)cc1C(=O)N1CC(C(F)(F)F)Oc2c(Cl)cccc21 (single isomer, unassigned) [Compound 219]
Wheat [17]; [42]
  Plant response rating, Wheat: 50
Wheat [17]; [43]
  Wheat plant response rating: 20
ryegrass, Italian [18]; [44]
  Plant response rating, Ryegrass, Italian: 50
ryegrass, Italian [18]; [45]
  Plant response rating, Ryegrass, Italian: 70
Wheat [19]; [44]
  Plant response rating, Wheat: 20
Wheat [19]; [45]
  Plant response rating, Wheat: 40
rice
  Plant response rating, Rice (Flood): 0
Ragweed [20]; [42]
  Plant response rating, Ragweed: 70
Ragweed [20]; [43]
  Ragweed plant response rating: 30
ducksalad
  Plant response rating, Ducksalad (Flood): 50
Blackgrass [21]; [44]
  Plant response rating, Blackgrass: 40
Blackgrass [21]; [45]
  Plant response rating, Blackgrass: 50
ryegrass, Italian [22]; [42]
  Plant response rating, Ryegrass, Italian: 80
ryegrass, Italian [22]; [43]
  Ryegrass, Italian plant response rating: 90
sedge, umbrella
  Plant response rating, Sedge, Umbrella (Flood): 50
Barnyardgrass [23]; [42]
  Plant response rating, Barnyardgrass: 100
Barnyardgrass [23]; [43]
  Barnyardgrass plant response rating: 80
pigweed, palmer [24]; [44]
  Plant response rating, Pigweed, Palmer: 100
pigweed, palmer [24]; [45]
  Plant response rating, Pigweed, Palmer: 100
Barnyardgrass [25]; [44]
  Plant response rating, Barnyardgrass: 70
Barnyardgrass [25]; [45]
  Plant response rating, Barnyardgrass: 100
Soybean [26]; [42]
  Plant response rating, Soybean: 90
Soybean [26]; [43]
  Soybean plant response rating: 70
Barnyardgrass [27]
  Plant response rating, Barnyardgrass (Flood): 10
Blackgrass [28]; [42]
  Plant response rating, Blackgrass: 40
Blackgrass [28]; [43]
  Blackgrass plant response rating: 0
Soybean [29]; [44]
  Plant response rating, Soybean: 100
Soybean [29]; [45]
  Plant response rating, Soybean: 100
Corn [30]; [42]
  Plant response rating, Corn: 20
Corn [30]; [43]
  Corn plant response rating: 10
Kochia [31]; [44]
  Plant response rating, Kochia: 80
Kochia [31]; [45]
  Plant response rating, Kochia: 90
Horseweed [32]
  Plant response rating, Horseweed: 70
Green foxtail [33]; [42]
  Plant response rating, Foxtail, Green: 100
Green foxtail [33]; [43]
  Foxtail, Green plant response rating: 100
Ragweed [34]; [44]
  Plant response rating, Ragweed: 50
Ragweed [34]; [45]
  Plant response rating, Ragweed: 90
Galium [35]; [44]
  Plant response rating, Galium: 100
Galium [35]; [45]
  Plant response rating, Galium: 100
Kochia [36]; [42]
  Plant response rating, Kochia: 100
Kochia [36]; [43]
  Kochia plant response rating: 90
oat, wild [37]; [42]
  Plant response rating, Oat, Wild: 70
oat, wild [37]; [43]
  Oat, Wild plant response rating: 30
oat, wild [38]; [44]
  Plant response rating, Oat, Wild: 10
oat, wild [38]; [45]
  Plant response rating, Oat, Wild: 40
pigweed, palmer [39]; [42]
  Plant response rating, Pigweed, Palmer: 100
pigweed, palmer [39]; [43]
  Pigweed, Palmer plant response rating: 100
Green foxtail [40]; [44]
  Plant response rating, Foxtail, Green: 80
Green foxtail [40]; [45]
  Plant response rating, Foxtail, Green: 90
Corn [41]; [44]
  Plant response rating, Corn: 20
Corn [41]; [45]
  Plant response rating, Corn: 30
